How the values were obtained:
[1] = tested on: SAGPY (Arrowhead (Pygmaea)); experiment: Preemergence weed control under flooded paddy conditions; assay type: in vivo, Sagittaria pygmaea; conditions: rated 3-4 weeks after treatment
Summary of the method: (§1)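 Silt loam, seeds in top 0.5 cm; flood held 1.5-3 cm; test cpd as acetone/water 50/50 into flood water, ~0.0313-0.500 kg/ha a.i.; greenhouse 3-4 wk; visual 0-9 score vs control.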

[2] = tested on: GLXMAW (Soybean, Williams); experiment: Postemergence herbicidal evaluation; assay type: in vivo, Glycine max, (L.) Merr. cv Williams; conditions: postemergence
Summary of the method: (§2)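 Young plants, roughly two weeks from seeding, receive the active ingredient as a sprayed dispersion (acetone/water 50/50, 0.5% TWEEN 20) at 40 psi. Doses span about 0.0156 to 0.500 kg/ha. A visual score from 0 to 9 compares treated with control plants four to five weeks on.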

ORYSAT (Rice, Tebonnet) = experiment: Postemergence herbicidal evaluation; assay type: in vivo, Oryza sativa, (L.) Tebonnet; conditions: postemergence
Summary of the method: as §2

MOOVA (Monochoria) = experiment: Preemergence weed control under flooded paddy conditions; assay type: in vivo, Monochoria vaginalis; conditions: rated 3-4 weeks after treatment
Summary of the method: as §1

ECHCG (Barnyardgrass) = experiment: Postemergence herbicidal evaluation; assay type: in vivo, Echinochloa crus-galli; conditions: postemergence
Summary of the method: as §2

ABUTH (Velvetleaf) [3] = experiment: Preemergence herbicidal evaluation; assay type: in vivo, Abutilon theophrasti; conditions: rated 4-5 weeks after treatment, rating scale 0-9
Summary of the method: (§3)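 Test compound, dissolved in aqueous acetone, was sprayed over planted soil cups at an equivalent of about 0.0156 to 0.500 kg/ha; seeds had been mixed with potting soil. Greenhouse growth followed, with visual 0-9 scoring of injury at four to five weeks.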

[4] = tested on: TRZAWR (Wheat, Winter, cv Riband); experiment: Postemergence herbicidal evaluation; assay type: in vivo, Triticum aestivum; conditions: postemergence
Summary of the method: as §2

SETVI (Foxtail, Green) [5] = experiment: Postemergence herbicidal evaluation; assay type: in vivo, Setaria viridis; conditions: postemergence
Summary of the method: as §2

AMBEL (Ragweed, Common) = experiment: Postemergence herbicidal evaluation; assay type: in vivo, Ambrosia artemisifolia; conditions: postemergence
Summary of the method: as §2

SETVI (Foxtail, Green) [6] = experiment: Preemergence herbicidal evaluation; assay type: in vivo, Setaria viridis; conditions: rated 4-5 weeks after treatment, rating scale 0-9
Summary of the method: as §3

CASOB (Sicklepod) = experiment: Preemergence herbicidal evaluation; assay type: in vivo, Cassia obtusifolia; conditions: rated 4-5 weeks after treatment, rating scale 0-9
Summary of the method: as §3

ABUTH (Velvetleaf) [7] = experiment: Postemergence herbicidal evaluation; assay type: in vivo, Abutilon theophrasti; conditions: postemergence
Summary of the method: as §2

Cn1c(C(F)(F)F)cc(=O)n(-c2cc(N=C3SCC(=O)N3Cc3ccc(Cl)cc3)c(Cl)cc2F)c1=O [Compound 145, 3-{4-Chloro-5-{[3-(p-chlorobenzyl)-4-oxo-2-thiazolidinylidene]amino}-2-fluorophenyl}-1-methyl-6-(trifluoromethyl)-2,4(1H,3H)-pyrimidinedione]
herbicidal effect rating, SAGPY ([1]; 0.0313 kg/ha): 0.0 | herbicidal effect rating, SAGPY ([1]; 0.0625 kg/ha): 2.0 | herbicidal effect rating, SAGPY ([1]; 0.1250 kg/ha): 5.0 | herbicidal effect rating, SAGPY ([1]; 0.2500 kg/ha): 5.0 | herbicidal rating GLXMAW ([2]; rate 0.0156 kg/ha): 4.5 | herbicidal rating GLXMAW ([2]; rate 0.0313 kg/ha): 5.0 | herbicidal rating GLXMAW ([2]; rate 0.0625 kg/ha): 5.5 | herbicidal rating ORYSAT (ORYSAT (Rice, Tebonnet); rate 0.0156 kg/ha): 2.5 | herbicidal rating ORYSAT (ORYSAT (Rice, Tebonnet); rate 0.0313 kg/ha): 2.5 | herbicidal rating ORYSAT (ORYSAT (Rice, Tebonnet); rate 0.0625 kg/ha): 3.5 | herbicidal effect rating, MOOVA (MOOVA (Monochoria); 0.0313 kg/ha): 4.0 | herbicidal effect rating, MOOVA (MOOVA (Monochoria); 0.0625 kg/ha): 6.0 | herbicidal effect rating, MOOVA (MOOVA (Monochoria); 0.1250 kg/ha): 9.0 | herbicidal effect rating, MOOVA (MOOVA (Monochoria); 0.2500 kg/ha): 9.0 | herbicidal rating ECHCG (ECHCG (Barnyardgrass); rate 0.0156 kg/ha): 2.0 | herbicidal rating ECHCG (ECHCG (Barnyardgrass); rate 0.0313 kg/ha): 3.0 | herbicidal rating ECHCG (ECHCG (Barnyardgrass); rate 0.0625 kg/ha): 3.0 | Preemergence herbicidal rating ABUTH (ABUTH (Velvetleaf) [3]; rate 0.0156 kg/ha): 0.0 | Preemergence herbicidal rating ABUTH (ABUTH (Velvetleaf) [3]; rate 0.0313 kg/ha): 2.0 | Preemergence herbicidal rating ABUTH (ABUTH (Velvetleaf) [3]; rate 0.0625 kg/ha): 3.0 | Preemergence herbicidal rating ABUTH (ABUTH (Velvetleaf) [3]; rate 0.1250 kg/ha): 9.0 | Preemergence herbicidal rating ABUTH (ABUTH (Velvetleaf) [3]; rate 0.2500 kg/ha): 6.0 | herbicidal rating TRZAWR ([4]; rate 0.0156 kg/ha): 3.0 | herbicidal rating TRZAWR ([4]; rate 0.0313 kg/ha): 3.0 | herbicidal rating TRZAWR ([4]; rate 0.0625 kg/ha): 4.0 | herbicidal rating SETVI (SETVI (Foxtail, Green) [5]; rate 0.0156 kg/ha): 1.0 | herbicidal rating SETVI (SETVI (Foxtail, Green) [5]; rate 0.0313 kg/ha): 3.0 | herbicidal rating SETVI (SETVI (Foxtail, Green) [5]; rate 0.0625 kg/ha): 5.0 | herbicidal rating AMBEL (AMBEL (Ragweed, Common); rate 0.0156 kg/ha): 9.0 | herbicidal rating AMBEL (AMBEL (Ragweed, Common); rate 0.0313 kg/ha): 9.0 | herbicidal rating AMBEL (AMBEL (Ragweed, Common); rate 0.0625 kg/ha): 9.0 | Preemergence herbicidal rating SETVI (SETVI (Foxtail, Green) [6]; rate 0.0156 kg/ha): 1.0 | Preemergence herbicidal rating SETVI (SETVI (Foxtail, Green) [6]; rate 0.0313 kg/ha): 0.0 | Preemergence herbicidal rating SETVI (SETVI (Foxtail, Green) [6]; rate 0.0625 kg/ha): 7.0 | Preemergence herbicidal rating SETVI (SETVI (Foxtail, Green) [6]; rate 0.1250 kg/ha): 3.0 | Preemergence herbicidal rating SETVI (SETVI (Foxtail, Green) [6]; rate 0.2500 kg/ha): 7.0 | Preemergence herbicidal rating CASOB (CASOB (Sicklepod); rate 0.0156 kg/ha): 1.0 | Preemergence herbicidal rating CASOB (CASOB (Sicklepod); rate 0.0313 kg/ha): 1.0 | Preemergence herbicidal rating CASOB (CASOB (Sicklepod); rate 0.0625 kg/ha): 6.0 | Preemergence herbicidal rating CASOB (CASOB (Sicklepod); rate 0.1250 kg/ha): 1.0 | Preemergence herbicidal rating CASOB (CASOB (Sicklepod); rate 0.2500 kg/ha): 7.0 | herbicidal rating ABUTH (ABUTH (Velvetleaf) [7]; rate 0.0156 kg/ha): 9.0 | herbicidal rating ABUTH (ABUTH (Velvetleaf) [7]; rate 0.0313 kg/ha): 9.0 | herbicidal rating ABUTH (ABUTH (Velvetleaf) [7]; rate 0.0625 kg/ha): 9.0

Cc1ccc(CN2C(=O)CSC2=Nc2cc(-n3c(=O)cc(C(F)(F)F)n(C)c3=O)c(F)cc2Cl)cc1C [Compound 147, 3-{4-Chloro-5-{[3-(3,4-dimethylbenzyl)-4-oxo-2-thiazolidinylidene]amino}-2-fluorophenyl}-1-methyl-6-(trifluoromethyl)-2,4(1H,3H)-pyrimidinedione]
herbicidal effect rating, SAGPY ([1]; 0.0313 kg/ha): 0.0 | herbicidal effect rating, SAGPY ([1]; 0.0625 kg/ha): 0.0 | herbicidal effect rating, SAGPY ([1]; 0.1250 kg/ha): 0.0 | herbicidal effect rating, SAGPY ([1]; 0.2500 kg/ha): 2.0 | herbicidal rating GLXMAW ([2]; rate 0.0156 kg/ha): 5.5 | herbicidal rating GLXMAW ([2]; rate 0.0313 kg/ha): 5.5 | herbicidal rating GLXMAW ([2]; rate 0.0625 kg/ha): 6.0 | herbicidal rating ORYSAT (ORYSAT (Rice, Tebonnet); rate 0.0156 kg/ha): 1.5 | herbicidal rating ORYSAT (ORYSAT (Rice, Tebonnet); rate 0.0313 kg/ha): 2.5 | herbicidal rating ORYSAT (ORYSAT (Rice, Tebonnet); rate 0.0625 kg/ha): 3.5 | herbicidal effect rating, MOOVA (MOOVA (Monochoria); 0.0313 kg/ha): 7.0 | herbicidal effect rating, MOOVA (MOOVA (Monochoria); 0.0625 kg/ha): 9.0 | herbicidal effect rating, MOOVA (MOOVA (Monochoria); 0.1250 kg/ha): 9.0 | herbicidal effect rating, MOOVA (MOOVA (Monochoria); 0.2500 kg/ha): 9.0 | herbicidal rating ECHCG (ECHCG (Barnyardgrass); rate 0.0156 kg/ha): 1.0 | herbicidal rating ECHCG (ECHCG (Barnyardgrass); rate 0.0313 kg/ha): 2.0 | herbicidal rating ECHCG (ECHCG (Barnyardgrass); rate 0.0625 kg/ha): 1.0 | Preemergence herbicidal rating ABUTH (ABUTH (Velvetleaf) [3]; rate 0.0156 kg/ha): 0.0 | Preemergence herbicidal rating ABUTH (ABUTH (Velvetleaf) [3]; rate 0.0313 kg/ha): 0.0 | Preemergence herbicidal rating ABUTH (ABUTH (Velvetleaf) [3]; rate 0.0625 kg/ha): 0.0 | Preemergence herbicidal rating ABUTH (ABUTH (Velvetleaf) [3]; rate 0.1250 kg/ha): 4.0 | Preemergence herbicidal rating ABUTH (ABUTH (Velvetleaf) [3]; rate 0.2500 kg/ha): 7.0 | herbicidal rating TRZAWR ([4]; rate 0.0156 kg/ha): 2.5 | herbicidal rating TRZAWR ([4]; rate 0.0313 kg/ha): 3.5 | herbicidal rating TRZAWR ([4]; rate 0.0625 kg/ha): 4.0 | herbicidal rating SETVI (SETVI (Foxtail, Green) [5]; rate 0.0156 kg/ha): 1.0 | herbicidal rating SETVI (SETVI (Foxtail, Green) [5]; rate 0.0313 kg/ha): 1.0 | herbicidal rating SETVI (SETVI (Foxtail, Green) [5]; rate 0.0625 kg/ha): 2.0 | herbicidal rating AMBEL (AMBEL (Ragweed, Common); rate 0.0156 kg/ha): 6.0 | herbicidal rating AMBEL (AMBEL (Ragweed, Common); rate 0.0313 kg/ha): 9.0 | herbicidal rating AMBEL (AMBEL (Ragweed, Common); rate 0.0625 kg/ha): 7.0 | Preemergence herbicidal rating SETVI (SETVI (Foxtail, Green) [6]; rate 0.0156 kg/ha): 1.0 | Preemergence herbicidal rating SETVI (SETVI (Foxtail, Green) [6]; rate 0.0313 kg/ha): 0.0 | Preemergence herbicidal rating SETVI (SETVI (Foxtail, Green) [6]; rate 0.0625 kg/ha): 0.0 | Preemergence herbicidal rating SETVI (SETVI (Foxtail, Green) [6]; rate 0.1250 kg/ha): 1.0 | Preemergence herbicidal rating SETVI (SETVI (Foxtail, Green) [6]; rate 0.2500 kg/ha): 4.0 | Preemergence herbicidal rating CASOB (CASOB (Sicklepod); rate 0.0156 kg/ha): 0.0 | Preemergence herbicidal rating CASOB (CASOB (Sicklepod); rate 0.0313 kg/ha): 0.0 | Preemergence herbicidal rating CASOB (CASOB (Sicklepod); rate 0.0625 kg/ha): 0.0 | Preemergence herbicidal rating CASOB (CASOB (Sicklepod); rate 0.1250 kg/ha): 0.0 | Preemergence herbicidal rating CASOB (CASOB (Sicklepod); rate 0.2500 kg/ha): 5.0 | herbicidal rating ABUTH (ABUTH (Velvetleaf) [7]; rate 0.0156 kg/ha): 9.0 | herbicidal rating ABUTH (ABUTH (Velvetleaf) [7]; rate 0.0313 kg/ha): 9.0 | herbicidal rating ABUTH (ABUTH (Velvetleaf) [7]; rate 0.0625 kg/ha): 9.0

Reference: US20020137929A1, “1 - (3-heterocyclylphenyl) isothiourea, -isourea, -guanidine and -amidine herbicidal agents” (Intellectual Property Department, BASF Aktiengesellschaft, priority 1998, published 2002)
